From publication PMC10404814, “Fluorescent membrane potential assay for drug screening on Kv10.1 channel: identification of BL-1249 as a channel activator” (Frontiers in Pharmacology, 2023)

Columns and labels:
Assay type in all cases: cell-based
[1] = molecular target: T1, Kv10.1 (Homo sapiens, UniProt O95259); experiment: FLIPR membrane potential assay in HEK-Kv10.[…] cells, […]; details: read-out: % decrease at 100 μM
T1 construct: gene KCNH1
T1 sequence (O95259 1-989): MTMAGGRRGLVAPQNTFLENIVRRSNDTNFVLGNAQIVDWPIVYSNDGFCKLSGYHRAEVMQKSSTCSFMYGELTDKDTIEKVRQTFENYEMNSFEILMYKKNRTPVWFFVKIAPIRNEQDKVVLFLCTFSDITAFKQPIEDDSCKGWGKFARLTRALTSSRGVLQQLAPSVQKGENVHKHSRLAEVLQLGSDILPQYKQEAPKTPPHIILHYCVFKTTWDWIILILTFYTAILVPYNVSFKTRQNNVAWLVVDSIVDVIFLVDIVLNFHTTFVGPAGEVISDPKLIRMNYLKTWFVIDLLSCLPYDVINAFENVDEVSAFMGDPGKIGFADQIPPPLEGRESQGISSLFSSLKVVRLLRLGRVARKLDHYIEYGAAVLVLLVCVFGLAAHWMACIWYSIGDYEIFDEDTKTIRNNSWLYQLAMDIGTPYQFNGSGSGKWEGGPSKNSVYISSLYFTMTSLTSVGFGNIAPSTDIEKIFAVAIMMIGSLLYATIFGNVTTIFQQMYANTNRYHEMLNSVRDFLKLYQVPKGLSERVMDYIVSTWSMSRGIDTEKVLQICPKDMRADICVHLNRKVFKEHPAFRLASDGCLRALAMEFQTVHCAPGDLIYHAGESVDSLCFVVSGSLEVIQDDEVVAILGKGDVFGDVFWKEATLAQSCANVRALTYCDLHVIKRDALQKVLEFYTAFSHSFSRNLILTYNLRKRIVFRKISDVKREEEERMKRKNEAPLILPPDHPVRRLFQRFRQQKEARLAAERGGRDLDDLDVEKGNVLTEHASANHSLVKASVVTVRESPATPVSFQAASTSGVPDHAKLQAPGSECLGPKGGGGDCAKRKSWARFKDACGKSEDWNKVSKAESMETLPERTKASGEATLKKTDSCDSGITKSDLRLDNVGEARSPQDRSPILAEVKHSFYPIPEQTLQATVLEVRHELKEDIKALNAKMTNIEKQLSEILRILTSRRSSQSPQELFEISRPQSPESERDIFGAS

[2] = molecular target: T1, Kv10.1; experiment: as above; details: read-out: % decrease at 50 μM
[3] = molecular target: T1, Kv10.1; experiment: whole-cell voltage-clamp of HEK293 cells stably expressing human Kv10.[…] (activator); no effect in HEK-WT
[4] = molecular target: T1, Kv10.1; experiment: whole-cell voltage-clamp of HEK293 cells stably expressing human Kv10.[…]

CN(C)C(=O)C(CCN1CCC(O)(c2ccc(Cl)cc2)CC1)(c1ccccc1)c1ccccc1 [loperamide]
inhibition at 100 µM [1]: 31.9%

CN(C)CCC=C1c2ccccc2CCc2ccccc21 [amitriptyline]
inhibition at 100 µM [1]: 25.5%

COc1ccc(CCN2CCC(Nc3nc4ccccc4n3Cc3ccc(F)cc3)CC2)cc1 [astemizole]
inhibition at 50 µM [2]: 34.8%

c1ccc(-c2nnn[nH]2)c(Nc2cccc3c2CCCC3)c1 [BL, BL-1249]
EC50 [3]: 36.5 µM

Clc1ccc(COC(Cn2ccnc2)c2ccc(Cl)cc2Cl)c(Cl)c1 (stereo not drawn) [MN, miconazole nitrate]
IC50 [4]: 23.6 ± 5 µM

CNCCC(Oc1ccc(C(F)(F)F)cc1)c1ccccc1 (stereo not drawn) [fluoxetine]
IC50 [4]: 11.2 ± 6.2 µM
